Results taken from ChEMBL document CHEMBL2177034, “Inhibition of hypoxia inducible factor-2 transcription: isolation of active modulators from marine sponges” (J Nat Prod, 2012).
Active and inactive are the calls of the source.

What was measured:
[1] = Downregulation of HIF1alpha mRNA expression in human SK-RC-28 cells at 1 uM after 48 hrs by RT-PCR analysis; type: functional, cell-based
[2] = target: Hypoxia-inducible factor 1-alpha (Homo sapiens) (UniProt Q16665); test: Inhibition of HIF1alpha in human SK-RC-28 cells assessed as reduction in carbonic anhydrase 9 expression at 1 uM after 48 hrs by RT-PCR analysis; type: cell-based
Hypoxia-inducible factor 1-alpha (Homo sapiens), sequence (Q16665 whole entry, looked up, the tested form may be a part): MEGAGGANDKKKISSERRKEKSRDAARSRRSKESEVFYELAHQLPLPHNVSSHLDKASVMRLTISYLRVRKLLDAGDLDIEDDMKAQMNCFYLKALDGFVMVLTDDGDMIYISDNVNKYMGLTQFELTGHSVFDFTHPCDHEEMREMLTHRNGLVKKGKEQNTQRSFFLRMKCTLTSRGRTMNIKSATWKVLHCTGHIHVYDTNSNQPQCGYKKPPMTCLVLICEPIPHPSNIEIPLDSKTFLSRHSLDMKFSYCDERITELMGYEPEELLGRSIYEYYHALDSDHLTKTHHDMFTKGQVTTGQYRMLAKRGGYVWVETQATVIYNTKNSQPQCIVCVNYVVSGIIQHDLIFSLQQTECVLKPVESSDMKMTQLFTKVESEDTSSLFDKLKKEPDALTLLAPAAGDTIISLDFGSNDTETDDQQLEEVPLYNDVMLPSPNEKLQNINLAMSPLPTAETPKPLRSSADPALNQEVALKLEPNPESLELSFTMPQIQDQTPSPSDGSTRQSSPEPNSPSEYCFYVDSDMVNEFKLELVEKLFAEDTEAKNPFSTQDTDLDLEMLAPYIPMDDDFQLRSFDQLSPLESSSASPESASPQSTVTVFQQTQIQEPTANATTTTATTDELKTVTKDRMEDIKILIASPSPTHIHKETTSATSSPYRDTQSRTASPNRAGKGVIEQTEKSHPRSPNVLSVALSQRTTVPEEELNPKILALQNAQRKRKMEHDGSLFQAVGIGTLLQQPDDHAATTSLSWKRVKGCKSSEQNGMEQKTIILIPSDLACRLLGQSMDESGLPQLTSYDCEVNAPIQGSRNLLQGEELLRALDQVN

[3] = target: T1, Hypoxia inducible factors; HIF-1-alpha, HIF-2-alpha (Homo sapiens) (UniProt Q16665+Q99814); test: Inhibition of HIF1alpha/2alpha in human RCC4 cells assessed as reduction in VEGFA mRNA expression at 1 uM after 48 hrs by RT-PCR analysis; type: cell-based
786-0 [4] = test: Down regulation of carbonic anhydrase 9 expression in human 786-0 cells at 1 uM after 48 hrs by RT-PCR analysis; type: functional, cell-based
[5] = Downregulation of HIF2alpha mRNA expression in human RCC4 cells at 1 uM after 48 hrs by RT-PCR analysis; type: functional, cell-based
786-0 [6] = test: Downregulation of HIF1alpha mRNA expression in human 786-0 cells at 1 uM after 48 hrs by RT-PCR analysis; type: functional, cell-based
[7] = Downregulation of CCND1 mRNA expression in human SK-RC-28 cells at 1 uM after 48 hrs by RT-PCR analysis; type: functional, cell-based
[8] = target: T2, Endothelial PAS domain-containing protein 1 (Homo sapiens, UniProt Q99814); test: Inhibition of HIF2alpha in human RCC4 cells coexpressing HIF1alpha assessed as reduction in GLUT1 mRNA expression at 1 uM after 48 hrs by RT-PCR analysis; type: cell-based
T2 sequence (Q99814 whole entry, the tested form may be a part): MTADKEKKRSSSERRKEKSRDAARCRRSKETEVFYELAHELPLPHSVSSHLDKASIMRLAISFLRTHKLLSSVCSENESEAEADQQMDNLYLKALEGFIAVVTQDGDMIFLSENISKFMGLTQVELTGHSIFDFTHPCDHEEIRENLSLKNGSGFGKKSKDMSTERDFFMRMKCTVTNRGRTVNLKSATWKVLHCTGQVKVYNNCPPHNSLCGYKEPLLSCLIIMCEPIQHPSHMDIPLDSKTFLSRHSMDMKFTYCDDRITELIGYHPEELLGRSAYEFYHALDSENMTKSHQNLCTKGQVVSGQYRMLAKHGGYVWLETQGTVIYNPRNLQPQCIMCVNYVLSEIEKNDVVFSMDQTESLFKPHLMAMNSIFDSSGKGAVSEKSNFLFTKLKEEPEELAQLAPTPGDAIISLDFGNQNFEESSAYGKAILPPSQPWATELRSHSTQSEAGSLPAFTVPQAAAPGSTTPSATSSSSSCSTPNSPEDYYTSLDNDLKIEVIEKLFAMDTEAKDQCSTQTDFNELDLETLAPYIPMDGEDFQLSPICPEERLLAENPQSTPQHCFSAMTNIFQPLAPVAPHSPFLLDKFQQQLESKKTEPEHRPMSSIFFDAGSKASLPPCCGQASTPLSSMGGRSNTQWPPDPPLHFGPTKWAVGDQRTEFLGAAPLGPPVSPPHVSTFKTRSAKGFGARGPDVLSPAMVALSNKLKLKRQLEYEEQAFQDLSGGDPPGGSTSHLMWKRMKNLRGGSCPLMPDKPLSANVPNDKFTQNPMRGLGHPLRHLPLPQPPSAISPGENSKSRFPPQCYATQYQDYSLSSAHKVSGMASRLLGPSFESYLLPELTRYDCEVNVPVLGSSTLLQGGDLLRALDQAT

[9] = Downregulation of HIF2alpha mRNA expression in human SK-RC-28 cells at 1 uM after 48 hrs by RT-PCR analysis; type: functional, cell-based
[10] = target: T2, Endothelial PAS domain-containing protein 1; test: Inhibition of HIF2alpha in human 786-0 cells expressing truncated HIF1alpha assessed as reduction in luciferase activity after 24 hrs by reporter gene assay; type: cell-based
[11] = target: T2, Endothelial PAS domain-containing protein 1; test: Inhibition of HIF2alpha in human RCC4 cells coexpressing HIF1alpha assessed as reduction in CCND1 mRNA expression at 1 uM after 48 hrs by RT-PCR analysis; type: cell-based
[12] = target: T2, Endothelial PAS domain-containing protein 1; test: Inhibition of HIF2alpha in human 786-0 cells assessed as reduction in TGFalpha mRNA expression at 1 uM after 48 hrs by RT-PCR analysis; type: cell-based
[13] = target: T2, Endothelial PAS domain-containing protein 1; test: Inhibition of HIF2alpha in human 786-0 cells assessed as reduction in GLUT1 mRNA expression at 1 uM after 48 hrs by RT-PCR analysis; type: cell-based
[14] = target: T2, Endothelial PAS domain-containing protein 1; test: Inhibition of HIF2alpha in human 786-0 cells assessed as reduction in CCND1 mRNA expression at 1 uM after 48 hrs by RT-PCR analysis; type: cell-based
[15] = target: Hypoxia-inducible factor 1-alpha (Homo sapiens) (UniProt Q16665); test: Inhibition of HIF1alpha in human SK-RC-28 cells assessed as reduction in VEGFA at 1 uM after 48 hrs by RT-PCR analysis; type: cell-based
786-0 [16] = test: Cytotoxicity against human 786-0 cells expressing HIF2alpha after 2 days by XTT assay; type: functional, cell-based; details: 786-0, 48 h
[17] = Downregulation of TGFalpha mRNA expression in human SK-RC-28 cells at 1 uM after 48 hrs by RT-PCR analysis; type: functional, cell-based
[18] = target: T2, Endothelial PAS domain-containing protein 1; test: Inhibition of HIF2alpha in human 786-0 cells assessed as reduction in VEGFA at 1 uM after 48 hrs by RT-PCR analysis; type: cell-based
[19] = target: Hypoxia-inducible factor 1-alpha (Homo sapiens) (UniProt Q16665); test: Inhibition of HIF1alpha in human RCC4 cells coexpressing HIF2alpha assessed as decrease in carbonic anhydrase 9 mRNA expression at 1 uM after 48 hrs by RT-PCR analysis; type: cell-based
[20] = Cytotoxicity against human RCC4 cells expressing HIF2alpha and HIF1alpha after 2 days by XTT assay; type: functional, cell-based; details: RCC4, 48 h
[21] = Downregulation of HIF1alpha mRNA expression in human RCC4 cells at 1 uM after 48 hrs by RT-PCR analysis; type: functional, cell-based
786-0 [22] = test: Downregulation of HIF2alpha mRNA expression in human 786-0 cells at 1 uM after 48 hrs by RT-PCR analysis; type: functional, cell-based
[23] = target: T2, Endothelial PAS domain-containing protein 1; test: Inhibition of HIF2alpha in human RCC4 cells coexpressing HIF1alpha assessed as reduction in TGFalpha mRNA expression at 1 uM after 48 hrs by RT-PCR analysis; type: cell-based
[24] = Cytotoxicity against human SK-RC-28 cells expressing HIF1alpha after 2 days by XTT assay; type: functional, cell-based; details: 48 h
[25] = Downregulation of GLUT1 mRNA expression in human SK-RC-28 cells at 1 uM after 48 hrs by RT-PCR analysis; type: functional, cell-based
786-0 [26] = test: Inhibition of HIF-mediated VEGFA protein expression in serum deprived human 786-0 cells at 1 uM after 48 hrs relative to control; type: cell-based
786-0 [27] = test: Downregulation of HIF2alpha mRNA expression in human 786-0 cells at 20 uM after 48 hrs by RT-PCR analysis; type: functional, cell-based
[28] = target: Hypoxia-inducible factor 1-alpha (Homo sapiens) (UniProt Q16665); test: Inhibition of HIF1alpha in human SK-RC-28 cells assessed as reduction in VEGFA expression at 20 uM after 48 hrs by RT-PCR analysis; type: cell-based
[29] = target: T2, Endothelial PAS domain-containing protein 1; test: Inhibition of HIF2alpha in human RCC4 cells coexpressing HIF1alpha assessed as reduction in GLUT1 mRNA expression at 20 uM after 48 hrs by RT-PCR analysis; type: cell-based
[30] = target: Hypoxia-inducible factor 1-alpha (Homo sapiens) (UniProt Q16665); test: Induction of HIF1alpha in human RCC4 cells assessed as increase in […] 9 expression at 20 uM after 48 hrs by RT-PCR analysis relative to control; type: cell-based
[31] = target: T2, Endothelial PAS domain-containing protein 1; test: Inhibition of HIF2alpha in human 786-0 cells assessed as reduction in TGFalpha mRNA expression at 20 uM after 48 hrs by RT-PCR analysis; type: cell-based
[32] = Downregulation of HIF1alpha mRNA expression in human SK-RC-28 cells at 20 uM after 48 hrs by RT-PCR analysis; type: functional, cell-based
[33] = Downregulation of HIF1alpha mRNA expression in human RCC4 cells at 20 uM after 48 hrs by RT-PCR analysis; type: functional, cell-based
786-0 [34] = test: Inhibition of HIF-mediated VEGFA protein expression in serum deprived human 786-0 cells at 20 uM after 48 hrs relative to control; type: cell-based
[35] = target: T1, Hypoxia inducible factors; HIF-1-alpha, HIF-2-alpha (Homo sapiens); test: Inhibition of HIF1alpha/2alpha in human RCC4 cells assessed as reduction in VEGFA mRNA expression at 20 uM after 48 hrs by RT-PCR analysis; type: cell-based
[36] = target: T2, Endothelial PAS domain-containing protein 1; test: Inhibition of HIF2alpha in human 786-0 cells assessed as reduction in GLUT1 mRNA expression at 20 uM after 48 hrs by RT-PCR analysis; type: cell-based
[37] = target: T2, Endothelial PAS domain-containing protein 1; test: Inhibition of HIF2alpha in human 786-0 cells assessed as reduction in VEGFA mRNA expression at 20 uM after 48 hrs by RT-PCR analysis; type: cell-based
[38] = target: T2, Endothelial PAS domain-containing protein 1; test: Inhibition of HIF2alpha in human 786-0 cells assessed as reduction in CCND1 mRNA expression at 20 uM after 48 hrs by RT-PCR analysis; type: cell-based
[39] = target: T2, Endothelial PAS domain-containing protein 1; test: Inhibition of HIF2alpha in human RCC4 cells coexpressing HIF1alpha assessed as reduction in CCND1 mRNA expression at 20 uM after 48 hrs by RT-PCR analysis; type: cell-based
[40] = Downregulation of TGFalpha mRNA expression in human SK-RC-28 cells at 20 uM after 48 hrs by RT-PCR analysis; type: functional, cell-based
[41] = target: Hypoxia-inducible factor 1-alpha (Homo sapiens) (UniProt Q16665); test: Inhibition of HIF1alpha in human SK-RC-28 cells assessed as reduction in carbonic anhydrase expression at 20 uM after 48 hrs by RT-PCR analysis; type: cell-based
[42] = Downregulation of HIF2alpha mRNA expression in human SK-RC-28 cells at 20 uM after 48 hrs by RT-PCR analysis; type: functional, cell-based
786-0 [43] = test: Downregulation of HIF1alpha mRNA expression in human 786-0 cells at 20 uM after 48 hrs by RT-PCR analysis; type: functional, cell-based
786-0 [44] = test: Inhibition of total protein expression in serum deprived human 786-0 cells at 20 uM after 48 hrs relative to control; type: cell-based; details: 786-0, 48 h, 20 µM
[45] = Downregulation of GLUT1 mRNA expression in human SK-RC-28 cells at 20 uM after 48 hrs by RT-PCR analysis; type: functional, cell-based
[46] = Downregulation of HIF2alpha mRNA expression in human RCC4 cells at 20 uM after 48 hrs by RT-PCR analysis; type: functional, cell-based
[47] = target: T2, Endothelial PAS domain-containing protein 1; test: Inhibition of HIF2alpha in human RCC4 cells coexpressing HIF1alpha assessed as reduction in TGFalpha mRNA expression at 20 uM after 48 hrs by RT-PCR analysis; type: cell-based
[48] = Downregulation of CCND1 mRNA expression in human SK-RC-28 cells at 20 uM after 48 hrs by RT-PCR analysis; type: functional, cell-based

Nc1nccc(-c2c3c(O)ccnc3n3c(N)nccc23)n1 [VARIOLIN B]
8.8 µM: IC50 [20]
50%: inhibition (786-0 [26])
> 100 µM: IC50 (786-0 [16]) | IC50 [24]
inactive: Activity [1] | inhibition [2] | inhibition [3] | Activity (786-0 [4]) | Activity [5] | Activity (786-0 [6]) | Activity [7] | inhibition [8] | Activity [9] | inhibition [11] | inhibition [12] | inhibition [13] | inhibition [14] | inhibition [15] | Activity [17] | inhibition [18] | inhibition [19] | Activity [21] | Activity (786-0 [22]) | inhibition [23] | Activity [25]
0.7 µM: EC50 [10]

CC1(C)CCC[C@]2(C)[C@H]3C=C4C=C(O)C(=O)C=C4O[C@@]3(C)CC[C@@H]12 [PUUPEHENONE]
4: fold change (FC) [30]
17.7 µM: IC50 (786-0 [16])
3.3 µM: EC50 [10]
15.5 µM: IC50 [24]
Toxic: Activity (786-0 [44])
inactive: inhibition [28] | Activity [32] | Activity [40] | inhibition [41] | Activity [42] | Activity [45] | Activity [48]
18 µM: IC50 [20]
active: Activity (786-0 [27]) | inhibition [29] | inhibition [31] | Activity [33] | inhibition (786-0 [34]) | inhibition [35] | inhibition [36] | inhibition [37] | inhibition [38] | inhibition [39] | Activity (786-0 [43]) | Activity [46] | inhibition [47]

C[C@@]12CCCc3coc(c31)C(=O)c1cc3c(cc12)C(=O)C=CC3=O [XESTOQUINONE]
> 100 µM: EC50 [10]

CC(=O)OC[C@]12CCCC(C)(C)[C@@H]1CC[C@]1(C)[C@@H]2C[C@H]2OC(=O)[C@H]3[C@H](C(C)=O)[C@@H](O)C[C@@H]1[C@]23C
> 100 µM: EC50 [10]
